Experimental data: ChEMBL document CHEMBL1128188, “Neurosteroid analogues. 3. The synthesis and electrophysiological evaluation of benz[e]indene congeners of neuroactive steroids having the 5 beta-configuration” (1995)
Calls of active or inactive are those of the source. The calls are words filed in the database; no cut-off is given here.

Legend:
Format in all cases: functional
Rattus norvegicus [1] = organism: Rattus norvegicus; experiment: The compound gated current reflects the peak current directly gated by 10 uM compound in the absence of GABA compared to the response obtained from the same cell in response to 1 uM GABA alone; No response
Rattus norvegicus [2] = organism: Rattus norvegicus; experiment: The Magnitude of the peak current produced by 1 uM GABA plus 1 uM compound was normalized with respect to the peak current produced by 1 uM GABA alone on the same cell.
Rattus norvegicus [3] = organism: Rattus norvegicus; experiment: The compound gated current reflects the peak current directly gated by 10 uM compound in the absence of GABA compared to the response obtained from the same cell in response to 1 uM GABA alone.
Rattus norvegicus [4] = organism: Rattus norvegicus; experiment: The Magnitude of the peak current produced by 1 uM GABA plus 1 uM compound was normalized with respect to the peak current produced by 1 uM GABA alone on the same cell. Values are mean+/-SEM

Row | Structure (SMILES) | Effect (Rattus norvegicus [1]) | Response (Rattus norvegicus [2]) | Effect (Rattus norvegicus [3]) | Response (Rattus norvegicus [4])
1 | CC(C)(C)O[C@H]1CCC2C3CC[C@H](CCO)CC3CC[C@@]21C (stereo partly specified) | inactive | 114% | – | –
2 | CC(=O)C1CCC2C3CC[C@H](CCO)CC3CC[C@]12C (stereo partly specified) | – | 213% | 43 | –
3 | CC(=O)[C@H]1CCC2C3CC[C@H](CCO)CC3CC[C@@]21C (stereo partly specified) | – | 312% | 113 | –
4 | C[C@]12CC[C@@H]3C4CC[C@@H](O)C[C@H]4CC[C@H]3[C@@H]1CC[C@H]2C#N (stereo partly specified) | – | 443% | 49 | –
5 | C[C@]12CCC3C[C@@H](CCO)CCC3C1CCC2=O (stereo partly specified) | inactive | 197% | – | –
6 | C[C@]12CC[C@@H]3C4CC[C@@H](O)C[C@@H]4CC[C@H]3[C@@H]1CC[C@H]2C#N (stereo partly specified) | – | 514% | 166 | –
7 | CC(=O)[C@@H]1CC[C@H]2[C@@H]3CC[C@@H]4C[C@H](O)CCC4[C@H]3CC[C@]12C (stereo partly specified) | – | 523% | 30 | –
8 | CC(=O)[C@H]1CCC2C3CC[C@@H](CCO)CC3CC[C@@]21C (stereo partly specified) | inactive | – | – | 489%
9 | C[C@]12CCC3C[C@@H](CCO)CCC3C1CC[C@@H]2O (stereo partly specified) | inactive | 93% | – | –
10 | CC(=O)[C@@H]1CC[C@H]2[C@@H]3CC[C@H]4C[C@H](O)CCC4[C@H]3CC[C@]12C (stereo partly specified) | – | 521% | 144 | –
11 | C[C@]12CCC3C[C@@H](CCO)CCC3C1CCC2C#N (stereo partly specified) | inactive | 104% | – | –
12 | C[C@]12CCC3C[C@H](CCO)CCC3C1CC[C@@H]2C#N (stereo partly specified) | inactive | 346% | – | –
13 | C[C@]12CCC3C[C@@H](CCO)CCC3C1CC[C@@H]2C#N (stereo partly specified) | – | 497% | 115 | –
